Here are results for 15 molecules from US12600709B2, “Nonpeptide somatostatin type 5 receptor agonists and uses thereof” (Crinetics Pharmaceuticals, Inc., priority 2019, dated 2026).

Read-outs that look alike come from different tables or passages of the source.

For experiment [1], the target named is T1, human somatostatin receptor subtype 2 (Homo sapiens, UniProt P30874).
T1 construct: expressed in transfected cells
The experiment can be described thus: cAMP assay for SST2R (inhibition of cAMP in CHO-K1 cells). It counts as cell-based. Conditions: Table B; inhibition of cAMP via human SST2 receptor; read-out: SST2 potency. Put shortly: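 Agonism read as decrease in NKH477 (1.6 μM)-stimulated cAMP: compounds applied 20 min, 37° C, with 0.2 mM IBMX, to CHO-K1 stably expressing human SSTR2. cAMP quantified in lysates by time-resolved fluorescence (HTRF kit, 1-24 h RT), standard-curve regression, then EC50.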

Experiment [2] addresses T2, human somatostatin receptor subtype 5 (Homo sapiens, UniProt P35346).
T2 construct: expressed in transfected cells
The experiment can be described thus: cAMP assay for SST5R (inhibition of cAMP in CHO-K1 cells). In kind it is cell-based. Conditions: for EC50: inhibition of cAMP via human SST5 receptor, read-out: SST5 potency; for Fold selectivity for SST5 vs SST2: class symbols, SST5 receptor over SST2 receptor. The method in brief: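 CHO-K1 cells stably expressing human SSTR5 were treated 20 min at 37 °C with compounds plus 1.6 μM NKH477 in HBSS, 0.5 mM HEPES pH 7.4, 0.1% BSA, 0.2 mM IBMX. Lysate cAMP measured by HTRF against a standard curve; EC50 from cAMP-versus-concentration plots.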
(cAMP levels reflect the balance of adenylyl cyclase and phosphodiesterase activity.)

T1 sequence (P30874 whole entry): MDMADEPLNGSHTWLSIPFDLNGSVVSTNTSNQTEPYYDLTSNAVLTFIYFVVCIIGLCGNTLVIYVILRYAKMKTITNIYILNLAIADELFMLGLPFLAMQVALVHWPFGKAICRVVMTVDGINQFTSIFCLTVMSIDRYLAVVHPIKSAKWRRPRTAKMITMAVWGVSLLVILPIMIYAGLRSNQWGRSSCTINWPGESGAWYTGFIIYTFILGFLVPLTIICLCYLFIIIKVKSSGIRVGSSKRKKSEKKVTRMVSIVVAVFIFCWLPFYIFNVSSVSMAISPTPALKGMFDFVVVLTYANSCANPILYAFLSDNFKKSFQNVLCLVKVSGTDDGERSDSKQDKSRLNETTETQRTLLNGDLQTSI
T2 sequence (P35346 whole entry): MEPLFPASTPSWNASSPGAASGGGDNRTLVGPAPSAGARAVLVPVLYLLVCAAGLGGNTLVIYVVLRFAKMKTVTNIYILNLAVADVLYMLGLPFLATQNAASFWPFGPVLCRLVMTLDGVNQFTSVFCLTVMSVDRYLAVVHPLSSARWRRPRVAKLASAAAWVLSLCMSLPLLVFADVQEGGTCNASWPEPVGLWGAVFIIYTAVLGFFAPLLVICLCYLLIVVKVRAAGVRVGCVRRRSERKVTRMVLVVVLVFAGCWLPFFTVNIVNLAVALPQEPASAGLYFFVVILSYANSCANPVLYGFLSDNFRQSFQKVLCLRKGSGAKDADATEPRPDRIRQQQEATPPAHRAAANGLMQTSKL

Consider `Cc1ncc(C(=O)N[C@@H](C)C(F)(F)F)c(N2CC[C@H](N)C2)c1-c1cc(F)cc(F)c1` [1-230, 4-[(3S)-3-aminopyrrolidin-1-yl]-5-(3,5-difluorophenyl)-6-methyl-N-[(2S)-1,1,1-trifluoropropan-2-yl]pyridine-3-carboxamide], for which the EC50 in experiment [1] is 100 to 1000 nM; in experiment [2] (Table A) it was less than 10 nM; in experiment [2] (Table B), less than 10 nM. Further, the “Fold selectivity for SST5 vs SST2” value in experiment [2] (Table B) is given as “++ (++=100 to 499)”.
Consider `Cc1ncc(C(=O)N[C@@H](C)C(F)(F)F)c(N2CC[C@H](N)C2)c1-c1cc(F)cc(OC(F)F)c1` [1-231, 4-[(3S)-3-aminopyrrolidin-1-yl]-5-[3-(difluoromethoxy)-5-fluorophenyl]-6-methyl-N-[(2S)-1,1,1-trifluoropropan-2-yl]pyridine-3-carboxamide], for which the EC50 in experiment [1] is 100 to 1000 nM; in experiment [2] (Table A), less than 10 nM; in experiment [2] (Table B), less than 10 nM. Besides, the “Fold selectivity for SST5 vs SST2” value in experiment [2] (Table B) is on record as “+++ (+++=>500)”.
As to `Cc1ncc(C(=O)N[C@@H](C)C(F)(F)F)c(N2CC[C@H](N)C2)c1-c1cccc(OC(F)F)c1` [1-232, 4-[(3S)-3-aminopyrrolidin-1-yl]-5-[3-(difluoromethoxy)phenyl]-6-methyl-N-[(2S)-1,1,1-trifluoropropan-2-yl]pyridine-3-carboxamide], the EC50 was more than 1000 nM in experiment [1], less than 10 nM in experiment [2] (Table A) and less than 10 nM in experiment [2] (Table B). The “Fold selectivity for SST5 vs SST2” value in experiment [2] (Table B) is reported as “+++ (+++=>500)”.
For `Cc1ncc(C(=O)NC2CCC(F)(F)CC2)c(N2CC[C@H](N)C2)c1-c1cc(F)cc(F)c1` [1-233, 4-[(3S)-3-aminopyrrolidin-1-yl]-N-(4,4-difluorocyclohexyl)-5-(3,5-difluorophenyl)-6-methylpyridine-3-carboxamide], the EC50 was more than 1000 nM in experiment [1], less than 10 nM in experiment [2] (Table A) and less than 10 nM in experiment [2] (Table B). Moreover, in experiment [2] (Table B), the “Fold selectivity for SST5 vs SST2” value is on record as “+++ (+++=>500)”.
Regarding `C[C@]1(N)CCN(c2c(C(=O)NC34CC(F)(C3)C4)cnc(C#N)c2-c2cc(F)cc(F)c2)C1` [1-234, 4-[(3S)-3-amino-3-methylpyrrolidin-1-yl]-6-cyano-5-(3,5-difluorophenyl)-N-{3-fluorobicyclo[1.1.1]pentan-1-yl}pyridine-3-carboxamide], the EC50 in experiment [1] was 100 to 1000 nM; in experiment [2] (Table A), less than 10 nM; in experiment [2] (Table B), less than 10 nM. Moreover, the “Fold selectivity for SST5 vs SST2” value in experiment [2] (Table B) is listed as “+++ (+++=>500)”.
For `COc1ncc(C(=O)NCc2ccon2)c(N2CC[C@](C)(N)C2)c1-c1cc(F)cc(Cl)c1` [1-238, 4-[(3S)-3-amino-3-methylpyrrolidin-1-yl]-5-(3-chloro-5-fluorophenyl)-6-methoxy-N-[(1,2-oxazol-3-yl)methyl]pyridine-3-carboxamide], the results for the EC50 in experiment [1], in experiment [2] (Table A) and in experiment [2] (Table B) were 100 to 1000 nM, less than 10 nM and less than 10 nM, respectively. Besides, in experiment [2] (Table B), the “Fold selectivity for SST5 vs SST2” value is given as “+++ (+++=>500)”.
On to `COc1ncc(C(=O)NCc2ccon2)c(N2CC[C@](C)(N)C2)c1-c1cc(F)cc(OC(F)F)c1` [1-239, 4-[(3S)-3-amino-3-methylpyrrolidin-1-yl]-5-[3-(difluoromethoxy)-5-fluorophenyl]-6-methoxy-N-[(1,2-oxazol-3-yl)methyl]pyridine-3-carboxamide], for which the EC50 in experiment [1] was more than 1000 nM; in experiment [2] (Table A) it was less than 10 nM; in experiment [2] (Table B) it was less than 10 nM. Also, the “Fold selectivity for SST5 vs SST2” value in experiment [2] (Table B) is listed as “+++ (+++=>500)”.
On to `COc1ncc(C(=O)N[C@@H](C)c2ccccn2)c(N2CC[C@](C)(N)C2)c1-c1cc(F)cc(Cl)c1` [1-240, 4-[(3S)-3-amino-3-methylpyrrolidin-1-yl]-5-(3-chloro-5-fluorophenyl)-6-methoxy-N-[(1S)-1-(pyridin-2-yl)ethyl]pyridine-3-carboxamide], for which the EC50 in experiment [1] is 100 to 1000 nM; in experiment [2] (Table A), less than 10 nM; in experiment [2] (Table B) it was less than 10 nM. The “Fold selectivity for SST5 vs SST2” value in experiment [2] (Table B) is reported as “+++ (+++=>500)”.
`Cc1ncc(C(=O)NCc2ccon2)c(N2CC[C@](C)(N)C2)c1-c1cc(F)cc(Cl)c1` [1-242, 4-[(3S)-3-amino-3-methylpyrrolidin-1-yl]-5-(3-chloro-5-fluorophenyl)-6-methyl-N-[(1,2-oxazol-3-yl)methyl]pyridine-3-carboxamide]: the values for the EC50 in experiment [1], in experiment [2] (Table A) and in experiment [2] (Table B) were more than 1000 nM, less than 10 nM and less than 10 nM, respectively. Also, the “Fold selectivity for SST5 vs SST2” value in experiment [2] (Table B) is reported as “+++ (+++=>500)”.
With `C[C@]1(N)CCN(c2c(C(=O)NCc3ccon3)cnc(C#N)c2-c2cc(F)cc(Cl)c2)C1` [1-244, 4-[(3S)-3-amino-3-methylpyrrolidin-1-yl]-5-(3-chloro-5-fluorophenyl)-6-cyano-N-[(1,2-oxazol-3-yl)methyl]pyridine-3-carboxamide], the EC50 was 100 to 1000 nM in experiment [1], less than 10 nM in experiment [2] (Table A) and less than 10 nM in experiment [2] (Table B). The “Fold selectivity for SST5 vs SST2” value in experiment [2] (Table B) is reported as “+++ (+++=>500)”.
With `C[C@H](NC(=O)c1cnc(C#N)c(-c2cc(F)cc(Cl)c2)c1N1CC[C@](C)(N)C1)c1ccccn1` [1-245, 4-[(3S)-3-amino-3-methylpyrrolidin-1-yl]-5-(3-chloro-5-fluorophenyl)-6-cyano-N-[(1 S)-1-(pyridin-2-yl)ethyl]pyridine-3-carboxamide], the EC50 is more than 1000 nM in experiment [1], less than 10 nM in experiment [2] (Table A) and less than 10 nM in experiment [2] (Table B). Besides, in experiment [2] (Table B), the “Fold selectivity for SST5 vs SST2” value is given as “+++ (+++=>500)”.
With `C[C@H](NC(=O)c1cnc(OCCO)c(-c2cc(F)cc(F)c2)c1N1CC[C@](C)(N)C1)C1CC1` [1-246, 4-[(3S)-3-amino-3-methylpyrrolidin-1-yl]-N-[(1S)-1-cyclopropylethyl]-5-(3,5-difluorophenyl)-6-(2-hydroxyethoxy)pyridine-3-carboxamide], the EC50 in experiment [1] was 100 to 1000 nM; in experiment [2] (Table A), less than 10 nM; in experiment [2] (Table B), less than 10 nM. Further, the “Fold selectivity for SST5 vs SST2” value in experiment [2] (Table B) was “+++ (+++=>500)”.
For the molecule `C[C@H](NC(=O)c1cnc(OCC(=O)O)c(-c2cc(F)cc(F)c2)c1N1CC[C@](C)(N)C1)C1CC1` [1-247, 2-({4-[(3S)-3-amino-3-methylpyrrolidin-1-yl]-5-{[(1S)-1-cyclopropylethyl]carbamoyl}-3-(3,5-difluorophenyl)pyridin-2-yl}oxy)acetic acid], the figures for the EC50 in experiment [1], in experiment [2] (Table A) and in experiment [2] (Table B) were more than 1000 nM, less than 10 nM and less than 10 nM, respectively. In addition, the “Fold selectivity for SST5 vs SST2” value in experiment [2] (Table B) is recorded as “+++ (+++=>500)”.
As for `C[C@]1(N)CCN(c2c(C(=O)NC3CCCC3)cnc(C#N)c2-c2ccnc(C(F)(F)F)c2)C1` [1-248, 4-[(3S)-3-amino-3-methylpyrrolidin-1-yl]-2-cyano-N-cyclopentyl-2′-(trifluoromethyl)-[3,4′-bipyridine]-5-carboxamide], the EC50 in experiment [1] is more than 1000 nM; in experiment [2] (Table A), less than 10 nM; in experiment [2] (Table B), less than 10 nM. The “Fold selectivity for SST5 vs SST2” value in experiment [2] (Table B) is recorded as “+++ (+++=>500)”.
With `CCC(CC)NC(=O)c1cnc(C#N)c(-c2ccnc(C(F)(F)F)c2)c1N1CC[C@](C)(N)C1` [1-249, 4-[(3S)-3-amino-3-methylpyrrolidin-1-yl]-2-cyano-N-(pentan-3-yl)-2′-(trifluoromethyl)-[3,4′-bipyridine]-5-carboxamide], the EC50 was 100 to 1000 nM in experiment [1], less than 10 nM in experiment [2] (Table A) and less than 10 nM in experiment [2] (Table B). Also, the “Fold selectivity for SST5 vs SST2” value in experiment [2] (Table B) is given as “+++ (+++=>500)”.
